Measurements from patent US20210186982A1, “METHODS AND COMPOSITIONS FOR TREATING MELANOMA” (UNIVERSITE NICE SOPHIA ANTIPOLIS, priority 2017, published 2021).
“Also recorded” adds a separate entry of the source.

How the values were obtained:
ER stress response genes = assay: qRT-PCR analysis of ER stress response genes; assay type: cell-based, human; settings: 2 μM b-AP15, 6 h and 24 h; 12051u cells
Protocol: Total RNA was extracted from cell samples using Nucleospin RNAII kit (Macherey-Nagel) and following the manufacturer's instructions. Recovered RNA samples were quantified using NanoDrop spectrophotometer ND1000 (Thermo Fisher Scientific). Reverse transcription was performed on 1 μg of total RNA in a volume of 20 μL using High capacity cDNA Reverse Transcription kit (Applied Biosystems) according to the manufacturer's instructions. Quantitative PCR was performed on 20 ng cDNA samples, in sealed 96-well microtiter plates using the Platinum® SYBR Green qPCR Supermix-UDG w/ROX (Life Technologies) with the StepOnePlus System (Applied Biosystems). Relative mRNA levels were determined using the 2ΔΔCT method and ACTB and PPIA as housekeeping genes. Values are the mean of duplicates and are representative of two independent experiments.

A375 = assay: MTS conversion assay, melanoma cell proliferation; assay type: cell-based, human
Protocol: (§1) Cell proliferation was measured by a MTS conversion assay using the CellTiter 96® Aqueous Non-Radioactive Cell Proliferation kit (Promega, Madison Wis.) according to the manufacturer instructions. Cells were seeded in 96-well plates (5×10^4 cells/well) and treated with different reagents for the indicated times and incubated at 37° C. with MTS reagent. The optical density of each sample at 490 nm was determined with a Multiskan FC plate reader (Thermo Fisher Scientific, Waltham, Mass. USA).

m229R = assay: MTS conversion assay, melanoma cell proliferation; assay type: cell-based, human
Protocol: as §1

451IuR = assay: MTS conversion assay, melanoma cell proliferation; assay type: cell-based, human
Protocol: as §1

501Mel = assay: MTS conversion assay, melanoma cell proliferation; assay type: cell-based, human
Protocol: as §1

1205Iu = assay: MTS conversion assay, melanoma cell proliferation; assay type: cell-based, human
Protocol: as §1

451Lu-R Luc+ cells = assay: Melanoma xenograft in nude mice, tumor bioluminescence; assay type: in vivo; settings: 10 mgkg-1 i.p. every 3 days, vs vehicle
Protocol: (§2) All mouse experiments were carried out in accordance with the Institutional Animal Care and the local ethics committee. For human melanoma xenografts, 5-week-old female athymic (nu/nu) mice (Harlan) were subcutaneously injected with 1×106 451Lu-R BRAF inhibitor resistant melanoma cells engineered to express a luciferase reporter (451Lu-R Luc+ cells) in 100 μl of PBS. After 3 days, mice were injected every 3 days intraperitoneally with vehicle or 10 mgkg-1 b-AP15 in 90/1/9 mix of Labrafil/Tween 80/DMA. At the indicated time, mice were anesthetized and injected intraperitoneally with 50 mgkg-1 D-luciferin (Perkin Elmer) in PBS. Images were acquired using a Photon Imager (Biospace Lab) system and data analysed with the M3Vision software (Biospace Lab). Tumor growth was monitored and quantified using BLI. The total numbers of photons per second per steradian per square centimeter were recorded. For BLI plots, photon flux was calculated for each mouse by using a rectangular region of interest encompassing the thorax of the mouse in a prone position.

USP14 = molecular target: T1, USP14 (Homo sapiens, UniProt P54578); assay: DUB trap assay (HA-Ub-VS probe, anti-USP14 immunoblot); assay type: cell-based
T1 construct: endogenous in cells; host or cells: A375 (also 1205Lu, 501Mel, SKMel28, 451Lu) melanoma cells; cell lysates
T1 sequence (P54578 whole entry): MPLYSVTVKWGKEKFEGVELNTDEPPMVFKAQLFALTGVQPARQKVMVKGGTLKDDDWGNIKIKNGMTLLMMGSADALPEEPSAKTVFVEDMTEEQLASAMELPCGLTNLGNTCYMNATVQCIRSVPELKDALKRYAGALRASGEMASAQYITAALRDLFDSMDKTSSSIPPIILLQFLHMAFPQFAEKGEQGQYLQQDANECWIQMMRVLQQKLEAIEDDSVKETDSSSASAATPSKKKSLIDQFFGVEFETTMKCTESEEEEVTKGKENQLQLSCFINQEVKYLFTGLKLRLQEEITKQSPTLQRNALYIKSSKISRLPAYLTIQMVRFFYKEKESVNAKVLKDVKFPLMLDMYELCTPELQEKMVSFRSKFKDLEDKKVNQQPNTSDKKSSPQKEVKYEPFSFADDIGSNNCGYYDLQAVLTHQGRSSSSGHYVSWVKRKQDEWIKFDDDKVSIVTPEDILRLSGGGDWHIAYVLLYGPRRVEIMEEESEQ
Protocol: Cells were harvested, washed with PBS and pellets were dried then freezed (−80° C.) and subsequently lysed in ice-cold buffer containing 50 mM Tris (pH 7.4), 5 mM MgCl2, 250 mM sucrose, 1 mM DTT, 2 mM ATP, and 1 mM PMSF and mild sonication. Lysates were cleared by centrifugation, and 20 μg of protein extracts were incubated for 25 min at 37° C. with 2 μM HA-Ub-VS (Boston Biochem, Cambridge, Mass.). After boiling in reducing sample buffer, labelled cell lysates were subjected to immunoblot analysis as described above using the indicated antibodies.

melanoma cells = assay: Cytotoxic effect, rounding of cells; assay type: cell-based, human
[1] = Annexin-V-FITC/7-AAD flow cytometry, cell viability; assay type: cell-based; settings: human, A375 cells; solvent 87%
Protocol: Cell death was evaluated by flow cytometry following staining with Annexin-V-FITC and 7-AAD (eBiosciences) as previously described 24.

[2] = Body weight during xenograft study; assay type: in vivo; settings: 10 mgkg-1 i.p. every 3 days; nude mice; course of the study
Protocol: as §2

4511u and 4511uR cells = assay: Colony formation assay; assay type: cell-based, human
Protocol: Alternatively, cell growth was assessed by crystal violet staining on cells seeded in 24-well plates for the indicated time. After treatment, cells were fixed in PFA 3% during 20 min, washed with PBS 3 times and stained with crystal violet 0.4% in ethanol 20% for 30 min.

16 melanoma cell lines = assay: MTS proliferation assay, collection of melanoma cell lines; assay type: cell-based; settings: Homo sapiens, range over 16 melanoma cell lines, read-out: IC50 of b-AP15 for 16 melanoma cell lines
Protocol: as §1

[3] = 24 h, increasing doses 0.1 to 10 μM
[4] = 24 h, increasing doses 0.01 to 10 μM

Q: Which “ER stress response (CHOP, BIP/GRP78, GADD34, ATF4, spliced XBP1)” value (ER stress response genes) does the source give for `Cc1cc(C(=O)CN2CCCC2)c(C)n1-c1ccc(F)cc1` [b-AP15] here?
A: triggered a potent ER stress response

Q: And the “cell proliferation of A375 cells (MTS)” value (A375; 24 h, increasing doses up to 10 μM)?
A: drastically decreased cell proliferation; also recorded: impaired cell proliferation in a dose-dependent manner

Q: What about the IC50 (A375; Homo sapiens, A-375, A375, MET, BRAFV600E/CDKN2A*, resistance none, 48 h MTS, read-out: b-AP15 IC50) of the same compound?
A: 600 nM

Q: And the “cell proliferation of BRAFi-resistant m229R cells (MTS)” value (m229R; [3])?
A: potently decreased cell proliferation

Q: And the IC50 (m229R; Homo sapiens, m229R, MET, BRAFV600E/PTEN*/RTK*, resistance vemurafenib, 48 h MTS, read-out: b-AP15 IC50)?
A: 1100 nM

Q: What about the “cell proliferation of BRAFi-resistant 4511uR cells (MTS)” value (451IuR; [3]) of the same compound?
A: potently decreased cell proliferation

Q: And the IC50 (451IuR; Homo sapiens, 451IuR, MET, BRAFV600E/p53*/?, resistance dabrafenib, 48 h MTS, read-out: b-AP15 IC50)?
A: 1300 nM

Q: And the “cell proliferation of 501me1 cells (MTS)” value (501Mel; [4])?
A: impaired cell proliferation in a dose-dependent manner

Q: What about the IC50 (501Mel; Homo sapiens, 501Mel, MET, BRAFV600E, resistance none, 48 h MTS, read-out: b-AP15 IC50) of the same compound?
A: 500 nM

Q: What about the “cell proliferation of 1205Lu cells (MTS)” value (1205Iu; [4]) of the same compound?
A: impaired cell proliferation in a dose-dependent manner

Q: What about the IC50 (1205Iu; Homo sapiens, 1205Iu, MET, BRAFV600E/PTEN*, resistance none, 48 h MTS, read-out: b-AP15 IC50) of the same compound?
A: 400 nM

Q: And the “melanoma burden, bioluminescence analysis of tumor growth” value (451Lu-R Luc+ cells)?
A: marked decrease in melanoma burden

Q: What about the “USP14 activity in 12051u, 501Mel, SKMe128 and 4511u cells” value (USP14; 2 μM) of the same compound?
A: efficiently blocked the activity of USP14

Q: What about the “USP14 activity (USP14-Ub-HA) in A375 cells” value (USP14; A375 melanoma cells) of the same compound?
A: efficiently blocked the activity of USP14 in a dose-dependent manner

Q: What about the “time to rounding of melanoma cells” value (melanoma cells) of the same compound?
A: ≤ 12 h

Q: What about the viability [1] of the same compound?
A: 52%

Q: What about the “tolerability / weight loss” value [2] of the same compound?
A: no weight loss was observed

Q: What about the melanoma colony formation (4511u and 4511uR cells) of the same compound?
A: suppressed melanoma colony formation

Q: What about the IC50 (16 melanoma cell lines) of the same compound?
A: 400 to 2000 nM
